This note sets out measurements from patent US7615536B2, “1,4-benzothiazepine 1,1-dioxide derivative, process for its preparation, medicaments comprising this compound, and use thereof as a hypolipidaemic” (Sanofi-Aventis Deutschland GmbH, priority 2005, dated 2009).

This assay concerns the target T1, recombinantly expressed human sodium-dependent ileal bile acid transporter (IBAT, ASBT, SLC10A2) (Homo sapiens, UniProt Q12908).
T1 construct: Bases 599 to 1645 correspond to the complete coding region of the human IBAT; expressed in transfected cells
T1 sequence (Q12908 1-348): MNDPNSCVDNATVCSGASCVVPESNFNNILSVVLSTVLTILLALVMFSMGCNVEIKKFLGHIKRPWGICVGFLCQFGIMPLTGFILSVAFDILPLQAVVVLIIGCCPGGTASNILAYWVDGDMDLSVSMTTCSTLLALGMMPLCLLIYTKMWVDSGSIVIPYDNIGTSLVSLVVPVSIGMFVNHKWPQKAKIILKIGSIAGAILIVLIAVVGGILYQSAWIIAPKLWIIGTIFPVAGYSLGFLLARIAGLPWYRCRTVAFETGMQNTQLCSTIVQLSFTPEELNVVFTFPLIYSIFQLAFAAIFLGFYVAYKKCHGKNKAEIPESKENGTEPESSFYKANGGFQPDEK
Description: in vitro IBAT inhibition test ([3H]-taurocholic acid uptake into CHO-hIBAT cells). Type of assay: cell-based. The protocol:
Biological testing of the compound A according to the invention was carried out using the in vitro IBAT inhibition test. This test examines the effect of the compound according to the invention on the transport activity of the recombinantly expressed human sodium-dependent ileal bile acid transporter (IBAT=ileal Na^+/bile acid contransporter, ASBT=apical sodium-dependent bile acid transporter, SLC10A2=solute carrier family 10, member 2).
Preparation for and practice of the in vitro IBAT inhibition test:
1. Cloning of an Expression Vector for Human IBAT […]
CHO-hIBAT cells were sown at a concentration of 40 000 cells per well in cell culture medium in poly-D-lysine-coated 96-well plates and cultivated for 24h. […] Finally, 100 μL of scintillation fluid were added to each well, and the radioactivity taken up into the cells was determined in a MicroBeta scintillation microplate reader from Wallac.
The half-maximal inhibitory effect of the test compound (IC50 value, inhibitory concentration 50) was determined as follows:
• 1. […] This is the value measured in the absence of substance, measured in sodium-comprising transport assay buffer. • 2. […] This is the value measured in the absence of substance, measured in sodium-free transport assay buffer. • 3. […]

With `CCCCC1(CCCC)CS(=O)(=O)c2ccc(N(C)C)cc2[C@@H](c2cccc(NC(=O)N[C@@H]3O[C@H](CO)[C@@H](O)[C@H](O)[C@H]3O)c2)N1` [Example A], the IC50 (CHO-hIBAT cells, taurocholic acid 10 μM, 60 min at room temperature) was found to be 57 nM. Moreover, the “activity higher compared to comparative example from EP 1 169 313” value (relative to compound 11a, from the IC50 (human IBAT) values) worked out at 560%.

Broadly, the IC50 is the concentration that gives 50% inhibition.
